This is an account of results in ChEMBL document CHEMBL4028837, “Acetanilide and bromoacetyl-lysine derivatives as activators for human histone deacetylase 8” (Bioorg Med Chem Lett, 2017).

The structures appear in SMILES notation.

Experiment [1] deals with T1, Histone deacetylase 8 (Homo sapiens) (UniProt Q9BY41).
T1 sequence (whole entry): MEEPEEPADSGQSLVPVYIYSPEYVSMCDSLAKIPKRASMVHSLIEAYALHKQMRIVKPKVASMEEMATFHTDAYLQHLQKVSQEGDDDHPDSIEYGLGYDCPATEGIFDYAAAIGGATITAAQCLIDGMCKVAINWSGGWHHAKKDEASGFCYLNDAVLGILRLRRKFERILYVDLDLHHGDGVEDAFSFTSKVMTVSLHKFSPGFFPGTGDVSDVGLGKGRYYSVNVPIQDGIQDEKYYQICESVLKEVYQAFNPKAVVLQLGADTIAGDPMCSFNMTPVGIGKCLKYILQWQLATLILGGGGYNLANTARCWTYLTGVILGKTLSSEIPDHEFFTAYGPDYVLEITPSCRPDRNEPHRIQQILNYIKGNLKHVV
The experiment in a line: Activation of human HDAC8 deacetylation activity at 50 uM using AMC-Fluor-de-Lys-HDAC8 as substrate measured after 10 mins by reverse phase HPLC method relative to control.

Experiment [2] is filed under the species Homo sapiens. The experiment in a line: Activation of HDAC deacetylation activity in human HeLa nuclear extract at 50 uM using AMC-Fluor-de-Lys-HDAC8 as substrate measured after 5 mins by reverse phase HPLC method relative to control.
Experiment [3] concerns the target T1, Histone deacetylase 8 (Homo sapiens). The experiment in a line: Activation of human HDAC8 deacetylation activity at 50 uM using AMC less CH3CONH-FG-(Nepsilon-acetyl-lysine)-FSW-CONH2 as substrate measured after 10 mins by reverse phase HPLC method relative to control.
Experiment [4] is filed under the species Homo sapiens. The experiment in a line: Activation of HDAC deacetylation activity in human HeLa nuclear extract at 50 uM using AMC less CH3CONH-RH-(Nepsilon-acetyl-lysine)-(Nepsilon-acetyl-lysine)-CONH2 as substrate measured after 10 mins by reverse phase HPLC method relative to control.
Experiment [5] concerns the target T1, Histone deacetylase 8 (Homo sapiens). The experiment in a line: Activation of human HDAC8 deacetylation activity assessed as ratio of Kcat to Km for substrate at 50 uM using AMC less CH3CONH-FG-(Nepsilon-acetyl-lysine)-FSW-CONH2 as substrate measured after 1.5 mins by reverse phase HPLC method relative to control.
For experiment [6] the target is unchanged. The experiment can be described thus: Activation of human HDAC8 deacetylation activity assessed as ratio of Kcat to Km for substrate at 50 uM using AMC-Fluor-de-Lys-HDAC8 as substrate measured after 1.5 mins by reverse phase HPLC method relative to control.
Experiment [7] has the same target. The experiment in a line: Activation of human HDAC8 deacetylation activity assessed as decrease in substrate Kcat at 50 uM using AMC less CH3CONH-FG-(Nepsilon-acetyl-lysine)-FSW-CONH2 as substrate measured after 1.5 mins by reverse phase HPLC method relative to control. Also noted: scale not given: the % may be the effect or the level left.
For experiment [8] the target is unchanged. The experiment in a line: Activation of human HDAC8 deacetylation activity assessed as reduction in substrate Km at 50 uM using AMC-Fluor-de-Lys-HDAC8 as substrate measured after 1.5 mins by reverse phase HPLC method relative to control.
For experiment [9] the target is unchanged. The experiment in a line: Activation of human HDAC8 deacetylation activity assessed as reduction in substrate Kcat at 50 uM using AMC-Fluor-de-Lys-HDAC8 as substrate measured after 1.5 mins by reverse phase HPLC method relative to control.
Experiment [10] has the same target. The experiment can be described thus: Activation of human HDAC8 deacetylation activity assessed as reduction in substrate Km at 50 uM using AMC less CH3CONH-FG-(Nepsilon-acetyl-lysine)-FSW-CONH2 as substrate measured after 1.5 mins by reverse phase HPLC method relative to control.

For `CC(=O)Nc1cccc(C(F)(F)F)c1`, the fold change (FC) in experiment [1] stood at 1.7; in the experiment filed under Homo sapiens [2], 0.89; in [3] it was 1.3; in the experiment listed under Homo sapiens [4], 0.81.

Take `O=C(Nc1ccccc1C(F)(F)F)C(F)(F)F`: the fold change (FC) in experiment [1] came out at 1.4; in the experiment filed under Homo sapiens [2], 0.87; in [3], 1.2; in the experiment filed under Homo sapiens [4] it was 1.22.

For the compound `O=C(NC(=S)Nc1ccccc1)c1ccccc1`, the fold change (FC) was determined as 2.2 in experiment [1], 0.69 in the experiment listed under Homo sapiens [2], 0.5 in [3] and 0.58 in the experiment filed under Homo sapiens [4].

In the case of `O=C(Nc1ccc(C(F)(F)F)cc1)C(F)(F)F`, the fold change (FC) turned out to be 1.1 in experiment [1], 0.93 in the experiment filed under Homo sapiens [2], 1.4 in [3] and 0.64 in the experiment listed under Homo sapiens [4].

`CC(=O)Nc1ccccc1C(F)(F)F`: the fold change (FC) in experiment [1] amounted to 1.2; in the experiment listed under Homo sapiens [2], 0.98; in [3], 1.5; in the experiment listed under Homo sapiens [4] it was 1.45.

Turning to `O=C(Nc1cccc(C(F)(F)F)c1)C(F)(F)F`, the fold change (FC) in experiment [1] stood at 1.7; in the experiment listed under Homo sapiens [2] it was 0.96; in [3], 2.7; in the experiment listed under Homo sapiens [4], 0.54.

For the compound `CC(C)(C)OC(=O)N[C@@H](CCCCNC(=O)CBr)C(=O)Nc1ccccc1`, the fold change (FC) in experiment [5] was 2.6; in [1], 2.8; in experiment [6], 3.7; in the experiment filed under Homo sapiens [2], 1.09; in experiment [8], 3.5; in experiment [3], 5.6. For the same compound, the fold change (FC) in the experiment listed under Homo sapiens [4] worked out at 1.22; in experiment [9], 13; in experiment [10] it was 3.6. For the same compound, the Activity in experiment [7] was < 40%.

Turning to `CC(=O)Nc1ccc(C(F)(F)F)cc1`, the fold change (FC) in experiment [1] is 1.7; in the experiment filed under Homo sapiens [2], 0.93; in [3], 1.4; in the experiment listed under Homo sapiens [4], 0.83.
